Measured values reported in the supplement of paper PMC10307832.

Tests used:
Test in all cases: relative viability (nuclei count vs DMSO), 5 days (fraction); higher = more cells survive
NCI-H1299 = tested on: NCI-H1299
In short: (§1)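 Relative viability divides the nuclei count in treated wells by that in vehicle wells. Lung cancer cell lines were seeded in 1536-well plates, dosed by pin tool the next day, and fixed and stained after 5 days in one step with final 0.05% Triton X-100, 1% formaldehyde and 1 ug/ml Hoechst. Dosing was a single drug or a fixed anchor-drug dose plus five library-drug doses (not always all listed) in √10 steps, and values are medians of duplicate plates imaged at 4×.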

A549 = tested on: A549
In short: as §1

Calu-6 = tested on: Calu-6
In short: as §1

EBC-1 = tested on: EBC-1
In short: as §1

NCI-H1648 = tested on: NCI-H1648
In short: as §1

NCI-H1623 = tested on: NCI-H1623
In short: as §1

| Compound | relative viability (NCI-H1299; first compound 0.08 µM) | relative viability (NCI-H1299; first compound 0.8 µM) | relative viability (NCI-H1299; first compound 2.53 µM) | relative viability (NCI-H1299; first compound 8 µM) | relative viability (A549; first compound 0.08 µM) | relative viability (A549; first compound 0.8 µM) | relative viability (A549; first compound 2.53 µM) | relative viability (A549; first compound 8 µM) | relative viability (Calu-6; first compound 0.08 µM) | relative viability (Calu-6; first compound 0.8 µM) | relative viability (Calu-6; first compound 2.53 µM) | relative viability (Calu-6; first compound 8 µM) | relative viability (EBC-1; first compound 0.08 µM) | relative viability (EBC-1; first compound 0.8 µM) | relative viability (EBC-1; first compound 2.53 µM) | relative viability (EBC-1; first compound 8 µM) | relative viability (NCI-H1648; first compound 0.08 µM) | relative viability (NCI-H1648; first compound 0.8 µM) | relative viability (NCI-H1648; first compound 2.53 µM) | relative viability (NCI-H1648; first compound 8 µM) | relative viability (NCI-H1623; first compound 0.08 µM) | relative viability (NCI-H1623; first compound 0.8 µM) | relative viability (NCI-H1623; first compound 2.53 µM) | relative viability (NCI-H1623; first compound 8 µM) |
| --- | --- | --- | --- | --- | --- | --- | --- | --- | --- | --- | --- | --- | --- | --- | --- | --- | --- | --- | --- | --- | --- | --- | --- | --- |
| CCCCCCCCCCCC1=C(O)C(=O)C=C(O)C1=O [Embelin] + CS(=O)(=O)CCNCc1ccc(-c2ccc3ncnc(Nc4ccc(OCc5cccc(F)c5)c(Cl)c4)c3c2)o1 [Lapatinib] (partner 2 µM) | 0.943 | 0.971 | 0.991 | 0.967 | 0.923 | 1.12 | 1.12 | 1.1 | 1.03 | 1.11 | 1.08 | 1.14 | 0.202 | 0.247 | 0.218 | 0.217 | – | – | – | – | – | – | – | – |
| CCCCCCCCCCCC1=C(O)C(=O)C=C(O)C1=O [Embelin] + CC1(C)CCC(c2ccc(Cl)cc2)=C(CN2CCN(c3ccc(C(=O)NS(=O)(=O)c4ccc(N[C@H](CCN5CCOCC5)CSc5ccccc5)c(S(=O)(=O)C(F)(F)F)c4)cc3)CC2)C1 [Navitoclax] (partner 0.5 µM) | 1.09 | 1.1 | 1.09 | 1.02 | 1.21 | 1.35 | 1.21 | 1.3 | 0.837 | 1.01 | 0.904 | 0.831 | 0.439 | 0.426 | 0.425 | 0.404 | – | – | – | – | – | – | – | – |
| CCCCCCCCCCCC1=C(O)C(=O)C=C(O)C1=O [Embelin] + Nc1ncn([C@H]2C[C@H](O)[C@@H](CO)O2)c(=O)n1 [Decitabine] (partner 2 µM) | – | – | – | – | 0.303 | 0.252 | 0.326 | 0.277 | – | – | – | – | – | – | – | – | 0.577 | 0.549 | 0.548 | 0.365 | – | – | – | – |
| CCCCCCCCCCCC1=C(O)C(=O)C=C(O)C1=O [Embelin] + CC(C)C[C@H](NC(=O)[C@H](Cc1ccccc1)NC(=O)c1cnccn1)B(O)O [Bortezomib] (partner 0.002 µM) | 1.06 | 1.05 | 1.07 | 1.03 | – | – | – | – | 1.1 | 1.03 | 0.966 | 1.15 | 0.485 | 0.678 | 0.565 | 0.545 | – | – | – | – | – | – | – | – |
| CCCCCCCCCCCC1=C(O)C(=O)C=C(O)C1=O [Embelin] + C[C@]1(O)C[C@@H](c2nc(-c3ccc4ccc(-c5ccccc5)nc4c3)c3c(N)nccn32)C1 [Linsitinib] (partner 1 µM) | 0.93 | 1.04 | 1.06 | 0.938 | 0.546 | 0.717 | 0.582 | 0.456 | 0.993 | 1.1 | 0.981 | 0.959 | 0.946 | 1.01 | 0.998 | 0.751 | – | – | – | – | – | – | – | – |
| CCCCCCCCCCCC1=C(O)C(=O)C=C(O)C1=O [Embelin] + C[C@@H](Oc1cc(-c2cnn(C3CCNCC3)c2)cnc1N)c1c(Cl)ccc(F)c1Cl [Crizotinib] (partner 1 µM) | 0.954 | 1.02 | 0.963 | 0.94 | 0.834 | 0.81 | 0.987 | 0.915 | 0.738 | 0.854 | 0.822 | 0.692 | 0.205 | 0.229 | 0.191 | 0.19 | – | – | – | – | – | – | – | – |
| CCCCCCCCCCCC1=C(O)C(=O)C=C(O)C1=O [Embelin] + Cc1cc(Nc2cc(N3CCN(C)CC3)nc(Sc3ccc(NC(=O)C4CC4)cc3)n2)n[nH]1 [Tozasertib] (partner 0.1 µM) | – | – | – | – | – | – | – | – | – | – | – | – | – | – | – | – | 0.472 | 0.627 | 0.366 | 0.582 | 0.44 | 0.412 | 0.45 | 0.423 |
| CCCCCCCCCCCC1=C(O)C(=O)C=C(O)C1=O [Embelin] + Cc1nc(NC(=O)N2CCC[C@H]2C(N)=O)sc1-c1ccnc(C(C)(C)C(F)(F)F)c1 [Alpelisib] (partner 2 µM) | 1.08 | 1.07 | 1.07 | 1.11 | 0.901 | 0.794 | 0.837 | 0.728 | 0.983 | 0.935 | 0.978 | 0.893 | 0.93 | 1 | 0.914 | 0.732 | – | – | – | – | – | – | – | – |
| CCCCCCCCCCCC1=C(O)C(=O)C=C(O)C1=O [Embelin] + CS(=O)(=O)N1CCN(Cc2cc3nc(-c4cccc5[nH]ncc45)nc(N4CCOCC4)c3s2)CC1 [Pictilisib] (partner 1 µM) | 0.873 | 0.832 | 0.784 | 0.887 | 0.554 | 0.596 | 0.53 | 0.527 | 0.949 | 1.12 | 1.1 | 0.891 | 0.446 | 0.362 | 0.446 | 0.336 | – | – | – | – | – | – | – | – |
| CCCCCCCCCCCC1=C(O)C(=O)C=C(O)C1=O [Embelin] + NC(=O)Nc1cc(-c2cccc(F)c2)sc1C(=O)N[C@H]1CCCNC1 [AZD7762] (partner 0.2 µM) | – | – | – | – | – | – | – | – | – | – | – | – | – | – | – | – | 0.598 | 0.689 | 0.628 | 0.709 | – | – | – | – |
| CCCCCCCCCCCC1=C(O)C(=O)C=C(O)C1=O [Embelin] + COc1cc2c(Oc3ccc(NC(=O)C4(C(=O)Nc5ccc(F)cc5)CC4)cc3F)ccnc2cc1OCCCN1CCOCC1 [Foretinib] (partner 0.25 µM) | 1.08 | 1.11 | 1.14 | 1.13 | 0.906 | 1.05 | 1.09 | 1.04 | 0.86 | 1.01 | 0.883 | 1.03 | 0.0948 | 0.124 | 0.102 | 0.103 | – | – | – | – | 0.889 | 0.872 | 0.876 | 0.853 |
| CCCCCCCCCCCC1=C(O)C(=O)C=C(O)C1=O [Embelin] + CC(=O)c1c(C)c2cnc(Nc3ccc(N4CCNCC4)cn3)nc2n(C2CCCC2)c1=O [Palbociclib] (partner 0.5 µM) | – | – | – | – | – | – | – | – | – | – | – | – | – | – | – | – | 0.205 | 0.23 | 0.241 | 0.297 | – | – | – | – |
| CCCCCCCCCCCC1=C(O)C(=O)C=C(O)C1=O [Embelin] + CCNC(=O)c1noc(-c2cc(C(C)C)c(O)cc2O)c1-c1ccc(CN2CCOCC2)cc1 [Luminespib] (partner 0.01 µM) | – | – | – | – | – | – | – | – | – | – | – | – | – | – | – | – | – | – | – | – | 0.577 | 0.478 | 0.484 | 0.452 |
| CCCCCCCCCCCC1=C(O)C(=O)C=C(O)C1=O [Embelin] + Cc1nc(Nc2ncc(C(=O)Nc3c(C)cccc3Cl)s2)cc(N2CCN(CCO)CC2)n1 [Dasatinib] (partner 0.075 µM) | – | – | – | – | – | – | – | – | – | – | – | – | – | – | – | – | – | – | – | – | 0.554 | 0.542 | 0.534 | 0.555 |
| CCCCCCCCCCCC1=C(O)C(=O)C=C(O)C1=O [Embelin] + N=C(N)NC(=N)NCCc1ccccc1 [Phenformin] (partner 250 µM) | – | – | – | – | 0.204 | 0.167 | 0.185 | 0.0745 | – | – | – | – | – | – | – | – | – | – | – | – | 0.601 | 0.612 | 0.62 | 0.602 |
| CCCCCCCCCCCC1=C(O)C(=O)C=C(O)C1=O [Embelin] + O=C(CCCCCCC(=O)Nc1ccccc1)NO [Vorinostat] (partner 1 µM) | – | – | – | – | – | – | – | – | – | – | – | – | – | – | – | – | 0.464 | 0.908 | 0.487 | 0.699 | – | – | – | – |
| CCCCCCCCCCCC1=C(O)C(=O)C=C(O)C1=O [Embelin] + Nc1nc2[nH]cc(CCc3ccc(C(=O)N[C@@H](CCC(=O)O)C(=O)O)cc3)c2c(=O)[nH]1 [Pemetrexed] (partner 0.2 µM) | – | – | – | – | – | – | – | – | – | – | – | – | – | – | – | – | 0.682 | 0.675 | 0.776 | 0.662 | – | – | – | – |
| CCCCCCCCCCCC1=C(O)C(=O)C=C(O)C1=O [Embelin] + CC(=O)Nc1cccc(-n2c(=O)n(C3CC3)c(=O)c3c(Nc4ccc(I)cc4F)n(C)c(=O)c(C)c32)c1 [Trametinib] (partner 0.02 µM) | – | – | – | – | – | – | – | – | – | – | – | – | – | – | – | – | 0.53 | 0.572 | 0.524 | 0.596 | – | – | – | – |
| CCCCCCCCCCCC1=C(O)C(=O)C=C(O)C1=O [Embelin] + O=C(c1cc(Cc2n[nH]c(=O)c3ccccc23)ccc1F)N1CCN(C(=O)C2CC2)CC1 [Olaparib] (partner 8 µM) | 0.987 | 1.01 | 0.994 | 0.987 | 0.32 | 0.187 | 0.424 | 0.366 | 0.589 | 0.682 | 0.573 | 0.655 | 0.699 | 0.828 | 0.703 | 0.684 | 1 | 0.904 | 1.14 | 1.21 | – | – | – | – |
| CCCCCCCCCCCC1=C(O)C(=O)C=C(O)C1=O [Embelin] + COc1cccc2cc(-c3nc([C@H]4CC[C@H](C(=O)O)CC4)n4ncnc(N)c34)[nH]c12 [OSI-027] (partner 0.5 µM) | – | – | – | – | – | – | – | – | – | – | – | – | – | – | – | – | 0.263 | 0.293 | 0.248 | 0.278 | 0.486 | 0.41 | 0.468 | 0.494 |
